Results on four compounds are retold here after patent US8951500B2, “13C-MR imaging or spectroscopy of cell death” (GE Healthcare AS, priority 2006, dated 2015).

For data set [1], the system named is EL-4 murine lymphoma cells. Kind of data set: 31P-NMR measurements on acid-extracts of EL-4 cells induced to undergo cell death. In kind it is cell-based. The text has this:
Loss of NAD(H) can be explained by DNA-damage induced activation of the enzyme poly-ADP-ribose polymerase (PARP), which […] various proteins and uses NAD^+ as a substrate.

In data set [2] the test system is EL4 murine lymphoma cells. Kind of data set: 13C-MR spectroscopy of hyperpolarised 13C-label flux between pyruvate and lactate in EL4 cell suspensions. Conditions: co-treatment of cells with the cell death inducer. In kind it is cell-based. Here is the method: EL4 murine lymphoma cells (10^8 cells) were treated with 15 μM etoposide (PCH Pharmachemie BV, Harleem), a compound which is known to induce cell death after 16 h exposure. A separate set of cells was treated for 16 hours with 15 μM etoposide plus 20 mM nicotinamide, a known PARP inhibitor. Cell death (apoptosis and necrosis) was confirmed by acridine orange and propidium iodide staining. The cells were washed 3 times with RPMI 1640 growth medium containing 10% FCS at 37° C. and to 2 ml of the etoposide- and etoposide/nicotinamide treated EL4 cell suspension 2 ml of the imaging medium according to Example 5 were added. The final cell suspension thus contained 30 mM hyperpolarised ^13C1-pyruvate and 37.5 mM lactate.
^13C-signal intensities from ^13C-pyruvate and ^13C-lactate in etoposide-treated EL4 cell suspensions as described in 6.1 were followed over a time period of 240 seconds from the time of addition of the imaging medium. […]
^13C-signal intensities from ^13C-pyruvate and ^13C-lactate in etoposide-treated and etoposide/nicotinamide treated EL4 cell suspensions as described in 6.1 were followed over a time period of 240 seconds from the time of addition of the imaging medium. […] The data were fit to a two-site exchange model based on the modified Bloch equations, and the rate constants for the forward and reverse exchange ^13C-fluxes were determined. […]

In data set [3] the test system is EL-4 tumour. As to the kind of experiment: Tumour cell death (histology) and tumour volume (1H spin echo images) in EL4 lymphoma-bearing mice. In kind it is in vivo.
Data set [4] deals with EL-4 tumour. Kind of data set: 1H NMR measurements on perchloric acid-extracts of freeze-clamped tumours. In kind it is in vivo, mice. Conditions: etoposide-treated tumours, extracts made immediately after MR experiments, n=8.
Protocol: The data were collected 20 h after treatment of the animals with etoposide. […] These extracts were made immediately following completion of the MR experiments.
The next data set relates to LDH. Kind of data set: Enzyme activity measurements on protein extracts from freeze-clamped tumours. The following applies: drug-treated tumours, n=3. In kind it is in vivo, mice.
For data set [5], the system named is EL-4 tumour.
Protocol: (§1) Lymphoma tumours were produced in mice by subcutaneous implantation of EL4 cells. The mice were treated with an i.p. injection of 67 mg/kg etoposide. Tumour cell death following etoposide treatment was assessed histologically. Non-etoposide treated mice were used as control.
(§2) The time-dependent changes in the tumour signals from lactate and pyruvate were fit to the exchange model to obtain the apparent rate constants, and spin lattice relaxation times (FIG. 3B). The first 10-15 s of data acquisition were lost since this was the time taken to complete the injection and insert the ^13C surface coil probe assembly, containing the animal, into the imaging magnet.
(§3) The data were collected 20 h after treatment of the animals with etoposide. The increased SDs after 40 s reflect the decrease in signal-to-noise on the lactate and pyruvate resonances resulting from the loss of polarisation. […] These extracts were made immediately following completion of the MR experiments.
(§4) In another series of experiments, animals were etoposide-treated 24 h after imaging and then 24 h after etoposide treatment a second set of images were acquired, thus each animal could serve as its own control. However, as with the other experiments, there was little variation within the groups and the group results are presented.
Data set [6] has as its system EL-4 tumour. Kind of data set: In vivo 13C-MR spectroscopy of pyruvate-lactate label flux in EL4 tumours after i.v. hyperpolarised 13C1-pyruvate.
Protocol: as §1, §2, §3, §4
Data set [7] in a line: T1 relaxation of 13C1-pyruvate in human full blood. In kind it is physicochemical. Conditions: human full blood at 37° C. The text has this:
The amount of alanine, bicarbonate and lactate is dependent on the metabolic status of the tissue under investigation.
The isotopic enrichment of the hyperpolarised ^13C-pyruvate used in the method of the invention is preferably at least 75%, more preferably at least 80% and especially preferably at least 90%, an isotopic enrichment of over 90% being most preferred. Ideally, the enrichment is 100%. ^13C-pyruvate used in the method of the invention may be isotopically enriched at the C1-position (in the following denoted ^13C1-pyruvate), at the C2-position (in the following denoted ^13C2-pyruvate), at the C3-position (in the following denoted ^13C3-pyruvate), at the C1- and the C2-position (in the following denoted ^13C1,2-pyruvate), at the C1- and the C3-position (in the following denoted ^13C1,3-pyruvate), at the C2- and the C3-position (in the following denoted ^13C2,3-pyruvate) or at the C1-, C2- and C3-position (in the following denoted ^13C1,2,3-pyruvate). Isotopic enrichment at the C1-position is preferred since ^13C1-pyruvate has a higher T1 relaxation in human full blood at 37° C. (about 42 s) than ^13C-pyruvate which is isotopically enriched at other C-positions.

The mark [8] stands for this setting: etoposide-treated EL-4 cells compared to untreated control cells.

The structures appear in SMILES notation.

In the case of `NC(=O)c1cccnc1` [nicotinamide], the “effect of PARP inhibition on loss of NAD(H) and increase in FBP concentration in dying cells” value in data set [1] (20 mM nicotinamide) is “inhibited the loss of NAD(H) and the increase in FBP concentration”. In data set [2], the “ability to transfer hyperpolarised 13C-label between pyruvate and lactate pools” value is “maintained their ability to transfer the hyperpolarised ^13C-label between the pyruvate and lactate pools”.
`NC(=O)c1cccc(N)c1` [3-aminobenzamide]: the “effect of PARP inhibition on loss of NAD(H) and increase in FBP concentration in dying cells” value in data set [1] (10 mM 3-aminobenzamide) is “inhibited the loss of NAD(H) and the increase in FBP concentration”. For the same compound, the “ability to transfer hyperpolarised 13C-label between pyruvate and lactate pools” value in data set [2] was “maintained their ability to transfer the hyperpolarised ^13C-label between the pyruvate and lactate pools”.
Take `COc1cc([C@@H]2c3cc4c(cc3[C@@H](O[C@@H]3O[C@@H]5CO[C@@H](C)O[C@H]5[C@H](O)[C@H]3O)[C@H]3COC(=O)[C@H]23)OCO4)cc(OC)c1O` [etoposide]: in data set [1] (setting [8]), the “intensity of the resonances from NAD(H)” value is recorded as “a decrease in the intensity of the resonances from NAD(H)” and the “resonances from fructose-1,6-bisphosphate (FBP)” value is reported as “an increase in the resonances from the glycolytic intermediate, fructose-1,6-bisphosphate (FBP)”. The compound further returned a cell death with EL-4 tumour [3] (24 h after drug treatment, 67 mg/kg i.p., n=3) of 37.0±3.8%. Further, the tumour volume in the data set with EL-4 tumour [3] (treated tumours, multi-slice 1H spin echo images, n=8) was 1.3±0.2 cm^3. For the same compound, the “lactate/pyruvate ratio by 1H NMR” value in the data set on EL-4 tumour [4] amounted to 5.1±2.0. The compound further displayed an LDH activity in the data set with LDH of 100±20 units/g wet wt. The same compound showed a decrease in flux in the data set on EL-4 tumour [5] (following versus before treatment, n=4) of 39%. In the data set on EL-4 tumour [5] (iv, 24 h), this compound had a rate constant of 0.040 ± 0.012 s⁻¹. The “rate constant kP^app” value in the data set on EL-4 tumour [6] (etoposide-treated tumours, 20 h after treatment, n=8) stood at 0.056 ± 0.005 s⁻¹. Besides, the “calculated equilibrium lactate/pyruvate ratio (L∞/P∞)” value in the data set with EL-4 tumour [6] (etoposide-treated tumours, n=8) is on record as 2.7±0.4. Also, the “decrease in the rate constant kP^app” value with EL-4 tumour [6] (versus control tumours, data collected 20 h after treatment) is “approximately 25%”.
As to `CC(=O)C(=O)O` [^13C1-pyruvate], the T1 relaxation result in data set [7] is “about 42 s”.
